From US20230212121A1 (DAEGU-GYEONGBUK MEDICAL INNOVATION FOUNDATION, priority 2020, published 2023)

Assays:
Format in all cases: cell-based
[1] = target: T1, serotonin transporter (SERT) (Homo sapiens, UniProt P31645); test: Serotonin reuptake inhibition, [3H]-5-HT, HEK-293 cells transfected with 5-HT transporter cDNA; conditions: for Triple reuptake inhibition (Ratio %) SERT: compound 1 μM, [3H]-5-HT, relative to control without compound = 100%, lower value = more inhibition
T1 construct: expressed in transfected cells; host or cells: HEK-293
Procedure, shortened: (§1)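 HEK-293 cells transfected with SERT or NET cDNA were preincubated with compounds in uptake buffer for 15 min at 37 °C, then given [3H]-5-HT or [3H]-NE for 5 min at 37 °C. After ice-cold washes and 1% SDS lysis, retained radioactivity was expressed relative to the untreated control (100%). Screening was at 1 μM; IC50 came from six concentrations (1 nM–1 μM).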

[2] = target: T2, norepinephrine transporter (NET) (Homo sapiens, UniProt P23975); test: Norepinephrine reuptake inhibition, [3H]-NE, HEK-293 cells transfected with NE transporter cDNA; conditions: for Triple reuptake inhibition (Ratio %) NET: compound 1 μM, [3H]-NE, relative to control without compound = 100%, lower value = more inhibition
T2 construct: expressed in transfected cells; host or cells: HEK-293
Procedure, shortened: as §1

[3] = target: T3, dopamine transporter (DAT) (Homo sapiens, UniProt Q01959); test: Dopamine reuptake inhibition, [3H]-DA, HEK-293 cells transfected with dopamine transporter cDNA; conditions: for Triple reuptake inhibition (Ratio %) DAT: compound 1 μM, 20-30 nM [3H]-DA, relative to control without compound = 100%, lower value = more inhibition
T3 construct: expressed in transfected cells; host or cells: HEK-293
Procedure, shortened: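 Transfected cells were preincubated with compound (1 μM screen) for 15 min at 37 °C, then given 20-30 nM tracer for 5 min at 37 °C, washed ice-cold and lysed in 1% SDS for radioactivity counting. Uptake was expressed as % of untreated control, and IC50 came from six concentrations, 1 nM to 1 μM.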

T3 sequence (Q01959 whole entry, species assumed): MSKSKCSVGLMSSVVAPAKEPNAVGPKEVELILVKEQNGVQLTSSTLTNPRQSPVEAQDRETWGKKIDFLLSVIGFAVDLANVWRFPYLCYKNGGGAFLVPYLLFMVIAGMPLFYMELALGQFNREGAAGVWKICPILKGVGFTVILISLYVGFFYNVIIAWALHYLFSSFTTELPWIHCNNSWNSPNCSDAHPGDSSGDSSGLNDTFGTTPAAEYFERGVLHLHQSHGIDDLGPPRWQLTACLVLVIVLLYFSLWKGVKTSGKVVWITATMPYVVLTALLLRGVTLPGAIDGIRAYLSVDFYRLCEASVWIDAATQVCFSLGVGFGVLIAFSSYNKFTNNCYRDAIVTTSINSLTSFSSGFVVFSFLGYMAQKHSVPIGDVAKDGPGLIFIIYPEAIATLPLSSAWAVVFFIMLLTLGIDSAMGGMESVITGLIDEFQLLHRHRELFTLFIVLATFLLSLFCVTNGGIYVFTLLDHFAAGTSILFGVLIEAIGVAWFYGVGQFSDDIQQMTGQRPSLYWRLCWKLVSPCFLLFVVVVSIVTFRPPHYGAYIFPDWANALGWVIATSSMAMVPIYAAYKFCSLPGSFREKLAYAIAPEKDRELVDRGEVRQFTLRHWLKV
T2 sequence (P23975 whole entry, species assumed): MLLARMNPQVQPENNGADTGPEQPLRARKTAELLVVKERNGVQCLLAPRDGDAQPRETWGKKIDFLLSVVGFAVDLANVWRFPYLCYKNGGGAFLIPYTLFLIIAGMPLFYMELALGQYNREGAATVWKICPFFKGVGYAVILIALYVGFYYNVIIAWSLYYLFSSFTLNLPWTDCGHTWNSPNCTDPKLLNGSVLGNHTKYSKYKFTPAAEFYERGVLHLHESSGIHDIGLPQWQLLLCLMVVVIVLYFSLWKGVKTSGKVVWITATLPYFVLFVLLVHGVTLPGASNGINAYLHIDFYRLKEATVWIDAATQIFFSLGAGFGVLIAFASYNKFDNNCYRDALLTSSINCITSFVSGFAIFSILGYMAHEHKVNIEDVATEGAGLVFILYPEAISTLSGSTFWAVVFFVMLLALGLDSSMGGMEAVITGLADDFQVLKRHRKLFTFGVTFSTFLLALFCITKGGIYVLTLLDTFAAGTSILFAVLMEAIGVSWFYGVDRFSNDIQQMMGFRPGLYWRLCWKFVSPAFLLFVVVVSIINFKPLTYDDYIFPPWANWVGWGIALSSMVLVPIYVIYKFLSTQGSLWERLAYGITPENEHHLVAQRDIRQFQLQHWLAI
T1 sequence (P31645 whole entry, species assumed): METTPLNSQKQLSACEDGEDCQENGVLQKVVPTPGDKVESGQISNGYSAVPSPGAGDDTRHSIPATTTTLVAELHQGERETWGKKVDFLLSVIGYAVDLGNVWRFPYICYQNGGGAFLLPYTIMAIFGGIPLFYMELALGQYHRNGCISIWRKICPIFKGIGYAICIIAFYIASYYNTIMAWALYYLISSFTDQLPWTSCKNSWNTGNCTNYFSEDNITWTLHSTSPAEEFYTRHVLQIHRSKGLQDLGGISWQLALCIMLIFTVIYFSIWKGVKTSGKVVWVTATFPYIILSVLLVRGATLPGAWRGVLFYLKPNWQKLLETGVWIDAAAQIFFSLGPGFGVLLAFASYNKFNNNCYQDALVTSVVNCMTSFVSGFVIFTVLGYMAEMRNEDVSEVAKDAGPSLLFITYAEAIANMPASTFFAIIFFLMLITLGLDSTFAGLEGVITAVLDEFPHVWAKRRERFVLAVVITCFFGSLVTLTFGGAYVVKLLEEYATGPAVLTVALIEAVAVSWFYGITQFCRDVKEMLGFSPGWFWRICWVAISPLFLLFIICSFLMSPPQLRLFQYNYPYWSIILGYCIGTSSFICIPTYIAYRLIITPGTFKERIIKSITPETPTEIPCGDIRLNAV

Triple reuptake inhibition (Ratio %) SERT [1] [%]	Triple reuptake inhibition (Ratio %) NET [2] [%]	Triple reuptake inhibition (Ratio %) DAT [3] [%]	IC50 ([1]; concentration at which Ratio % is 50%, 6 concentrations 1 nM to 1 μM, read-out: Triple reuptake inhibition (IC50, μM) SERT) [µM]	IC50 ([2]; concentration at which Ratio % is 50%, 6 concentrations 1 nM to 1 μM, read-out: Triple reuptake inhibition (IC50, μM) NET) [µM]	IC50 ([3]; concentration at which Ratio % is 50%, 6 concentrations 1 nM to 1 μM, read-out: Triple reuptake inhibition (IC50, μM) DAT) [µM]	SMILES
47.19	64.45	68.53				O=S(=O)(NCCCN1CCN(c2ccc(Cl)cc2)CC1)c1ccc(-c2ccccc2)cc1 [Example 72, N-(3-(4-(4-chlorophenyl)piperazin-1-yl)propyl)-[1,1′-biphenyl]-4-sulfonamide]
100.21	61.32	73.55				O=S(=O)(NCCN1CCC(Cc2ccccc2)CC1)c1ccc(F)cc1 [Example 2, N-(2-(4-benzylpiperidin-1-yl)ethyl)-4-fluorobenzenesulfonamide]
46.18	31.83	35.21	1.45	1.3	1.55	O=S(=O)(NCCCN1CCC(Cc2ccccc2)CC1)c1cccc2ccccc12 [Example 55, N-(3-(4-benzylpiperidin-1-yl)propyl)naphthalen-1-sulfonamide]

SMILES	Triple reuptake inhibition (Ratio %) SERT [1] [%]	Triple reuptake inhibition (Ratio %) NET [2] [%]	Triple reuptake inhibition (Ratio %) DAT [3] [%]	IC50 ([1]; concentration at which Ratio % is 50%, 6 concentrations 1 nM to 1 μM, read-out: Triple reuptake inhibition (IC50, μM) SERT) [µM]	IC50 ([2]; concentration at which Ratio % is 50%, 6 concentrations 1 nM to 1 μM, read-out: Triple reuptake inhibition (IC50, μM) NET) [µM]	IC50 ([3]; concentration at which Ratio % is 50%, 6 concentrations 1 nM to 1 μM, read-out: Triple reuptake inhibition (IC50, μM) DAT) [µM]
CCCCOc1ccc(S(=O)(=O)NCCCN2CCN(c3cccc(Cl)c3Cl)CC2)cc1 [Example 24, 4-butoxy-N-(3-(4-(2,3-dichlorophenyl)piperazin-1-yl)propyl)benzenesulfonamide]	60.27	58.70	99.30			
